Experimental data reported in US7589169B2, “Compositions for treatment with glucagon-like peptide, and methods of making and using the same” (Pharmain Corporation, priority 2002, dated 2009).

Tested on: rat pancreatic ductal cell line ARIP
Test: Trans-differentiation of ARIP ductal cells, RT-PCR of beta-cell specific genes
Format: cell-based
Conditions: ARIP cells cultured with GLP-1, RT-PCR
Procedure: Based on previous studies, insulin mRNA should be detectable after 48 h, GLUT-2 after 24 h and glucokinase mRNA at 72 h. […] RT-PCR for β-actin will be used as a control for cDNA loading.

glucagon-like peptide 1 [GLP-1] was tested, and the “time after which GLUT-2 mRNA should be detectable” value was 24 h, the “time after which insulin mRNA should be detectable” value was 48 h and the “time at which glucokinase mRNA should be detectable” value was 72 h.
